In patent US20200155526A1, “TARGETING LYSINE DEMETHYLASES (KDMS) AS A THERAPEUTIC STRATEGY FOR DIFFUSE LARGE B-CELL LYMPHOMA” (THE CHILDREN'S MEDICAL CENTER CORPORATION, priority 2017, published 2020):

Legend:
OCI-Ly1 = OCI-Ly1 sensitivity assay (CTG viability); assay type: cell-based, human; conditions: for OCI-Ly1 cell viability, Jumonji-inhibitors: OCI-Ly1, range tested, FIG. 5
Protocol: (§1) For the Cell Titer Glo assays (CTG), between 3000-10,000 cells were plated in a 96 well plate (in triplicates). The cells were allowed to settle for 24 hours before either small molecule(s) or DMSO was added at indicated concentrations. The treatment was performed for indicated days (preferably 2 days for a “snap-shot” experiments). CTG signal was used to assess viability after 2 days according to manufacturer's protocol (Promega Corporation; Madison, Wis.).
When performing the comparative test of GSK126 and JIB04, daily readings were taken using the manufacturer's protocol for CTG signal after day 2 (for JIB04), and after day 5 (for GSK126).
For OCI-Ly1 sensitivity assay, OCI-Ly1 cells were grown at a density of 1-3×10^6 cells/mL and 3000-10,000 cells were plated in a 96-well plate (in triplicates). The cells were allowed to settle for 24 hours before either the indicated small molecule(s) or DMSO was added at indicated concentrations. CTG signal was used to assess viability after 2 days according to manufacturer's protocol (Promega Corporation; Madison, Wis.). Small molecules used in each experiment are stated in the respective figures along with their concentrations. Results are shown in FIGS. 10, 11, 13, 14, 15, 16 and 22.

DB = experiment: Cell Titer Glo (CTG) viability, JIB04 dose response; assay type: cell-based; conditions: Homo sapiens, 48 h; DB (DLBCL), 2 days treatment, FIG. 2
Protocol: as §1

Farage = experiment: as above; assay type: cell-based; conditions: 48 h; Farage (DLBCL), 2 days treatment, FIG. 2
Protocol: as §1

HL-60 = experiment: as above; assay type: cell-based; conditions: Homo sapiens, 48 h; HL-60 (leukemia), 2 days treatment, FIG. 2; read-out: effective EC50
Protocol: as §1

Jurkat = experiment: as above; assay type: cell-based; conditions: Homo sapiens, 48 h; Jurkat (leukemia), 2 days treatment, FIG. 2; read-out: effective EC50
Protocol: as §1

MV4-11 = experiment: as above; assay type: cell-based; conditions: Homo sapiens, 48 h; MV4-11 (leukemia), 2 days treatment, FIG. 2; read-out: effective EC50
Protocol: as §1

SUDHL5 = experiment: as above; assay type: cell-based; conditions: Homo sapiens, SU-DHL-5, 48 h; SUDHL5 (DLBCL), 2 days treatment, FIG. 2
Protocol: as §1

THP-1 = experiment: as above; assay type: cell-based; conditions: Homo sapiens, 48 h; THP-1 (leukemia), 2 days treatment, FIG. 2; read-out: effective EC50
Protocol: as §1

Toledo = experiment: as above; assay type: cell-based; conditions: Homo sapiens, 48 h; Toledo (DLBCL), 2 days treatment, FIG. 2
Protocol: as §1

DLBCL cell lines = experiment: Sensitivity of DLBCL cell lines (CTG viability); assay type: cell-based
Protocol: For the Cell Titer Glo assays (CTG), between 3000-10,000 cells were plated in a 96 well plate (in triplicates). The cells were allowed to settle for 24 hours before either small molecule(s) or DMSO was added at indicated concentrations. The treatment was performed for indicated days (preferably 2 days for a “snap-shot” experiments). CTG signal was used to assess viability after 2 days according to manufacturer's protocol (Promega Corporation; Madison, Wis.). For OCI-Ly1 sensitivity assay, OCI-Ly1 cells were grown at a density of 1-3×10^6 cells/mL and 3000-10,000 cells were plated in a 96-well plate (in triplicates). The cells were allowed to settle for 24 hours before either the indicated small molecule(s) or DMSO was added at indicated concentrations. CTG signal was used to assess viability after 2 days according to manufacturer's protocol (Promega Corporation; Madison, Wis.). Small molecules used in each experiment are stated in the respective figures along with their concentrations. Results are shown in FIGS. 10, 11, 13, 14, 15, 16 and 22.

lymphoma cell lines = experiment: Annexin V staining apoptosis assay; assay type: cell-based; conditions: FIG. 4A
Protocol: APC-Annexin V was obtained from BD Pharmingen (Franklin Lakes, N.J.), and Annexin V staining was performed as described by the manufacturer.

PARP = experiment: Production of cleaved PARP; assay type: cell-based; conditions: FIG. 4B
OCI-Ly1 cell lines = experiment: Transcriptomics (RNA-seq, GSEA) of JIB04-treated cells; assay type: cell-based, human
Protocol: (§2) Three independent cultures of OCI-Ly1 cell lines were grown till the cultures achieved the cell numbers of approximately 1-1.5*10^6 cells/ml, and then cells were treated with either DMSO or two different JIB04 concentrations (150 nM and 500 nM). RNA was isolated using Trizol method, followed by library preparation using NEBUltraII kit (New England Biolabs; Ipswich, Mass.). After high throughput sequencing of the libraries, FastQc was used for filtering and quality control of the reads followed by read alignment to hg19 assembly of the human genome. Reads were counted by TopHat, differential gene expression analysis was performed in Rstudio. GSEA was performed using the desktop client from the Broad Institute, and the GSEA output was visualized using Rstudio.

[1] = Cell cycle analysis by propidium iodide staining; assay type: cell-based, human; conditions: different dosage and times, FIG. 7C
Source text: Propidium Iodide Flow Cytometry Kit from Abcam was used to perform cell cycle analysis using propidium iodide staining according to manufacturer's protocol.

[2] = system: Ikaros family members (IKZF1, IKZF3); experiment: Immunoblotting of Ikaros family members and BCR signaling components; assay type: cell-based; conditions: JIB04 100 nM or 500 nM, FIG. 20
Protocol: Effect of JIB-04 on Ikaros family members and proximal components of BCR signaling pathway was assayed as follows: One million cells growing under indicated conditions (DMSO or JIB04 treatment; 100 nM or 500 nM) were pelleted by centrifugation at 1000 rpm for 5 min, and then resuspended in RIPA buffer with protease and phosphatase inhibitors. The cell suspension was left on ice for 20 min, and then sonicated using Diagenode water-bath sonicator (15 s. on; 30 s. off, for 15 cycles at max power). After sonication, cell extract was spun at 12000 rpm for 20 min, and the supernatant was collected for immunoblotting. Immunoblotting was performed using standard methods, and the blots were probed using antibodies recognizing indicated proteins.

canonical Wnt signaling = experiment: Transcriptomics / ChIP-seq GSEA of Wnt signaling; assay type: cell-based; conditions: FIGS. 21A-21C
Protocol: as §2
Cells were fixed with 1% formaldehyde for 10 minutes at room temperature before termination with 0.125 M glycine. Cells were then lysed in ChIP buffer (0.6% SDS, 10 mM EDTA, and 50 mM Tris-HCl, pH 8.1) and cross-linked chromatin was sonicated to obtain DNA fragments of 300-800 bp. […] Libraries were quantified by Qubit (Invitrogen), and sequenced using a HiSeq 2000 (Illumina) to generate 50 bp single end reads.

Ly1 cells [3] = experiment: In vivo Ly1 luciferase model, bioluminescence imaging; conditions: NSG mice, 30 mg/kg, 3 times weekly, intra-peritoneal, 2 weeks post treatment, FIGS. 18A-18B
Protocol: For in vivo studies, Ly1 cells, with a luciferase reporter or […], were administered to Nod/SCID− mice (NSG) (6-8 weeks) were used for tail vein injection. Mice administered the Ly1 cells comprising the luciferase reporter were imaged every week after injection using the IVIS Spectrum In Vivo Imaging System (Perkin Elmer). […] JIB04 was administered three times a week, for two weeks, via intra-peritoneal injection in a mix of 90% sesame oil and 10% DMSO mix (vehicle). Mice were imaged each week and images from pre-treatment and 2-weeks after start of treatment with 30 mg/kg (3× a week) JIB04 are shown in FIG. 18A (pre-treatment) and FIG. 18B (post-treatment).

Ly1 cells [4] = experiment: In vivo Ly1 model, Kaplan Meier survival; conditions: mice, compared to vehicle treated mice, FIG. 19
Source text: Mice administered Ly1 cells without the luciferase reporter were monitored post administration, and fraction surviving was plotted (FIG. 19) using the Kaplan Meier Survival Analysis of Graphpad Prism.

[5] = JIB04 150 nM and 500 nM, FIG. 7A

Compound: CC(C)c1c(-c2ccccc2)[nH]c2c(C#N)cnn2c1=O [CPI-455]
- OCI-Ly1 cell viability, Jumonji-inhibitors (OCI-Ly1): only JIB04 decreased OCI-Ly1 cell viability significantly

Compound: CCOC(=O)CCNc1cc(N2CCc3ccccc3CC2)nc(-c2ccccn2)n1 [GSK-J4]
- OCI-Ly1 cell viability, Jumonji-inhibitors (OCI-Ly1): only JIB04 decreased OCI-Ly1 cell viability significantly

Compound: Clc1ccc(N/N=C(\c2ccccc2)c2ccccn2)nc1 [JIB04, 5-Chloro-2-[(E)-2-[phenyl(pyridin-2-yl)methylidene]hydrazin-1-yl]pyridine]
- EC50 (DB): < 0.25 µM
- EC50 (Farage): < 0.25 µM
- EC50 (HL-60): ~1 µM
- EC50 (Jurkat): ~1 µM
- EC50 (MV4-11): ~1 µM
- EC50 (SUDHL5): < 0.25 µM
- EC50 (THP-1): ~1 µM
- EC50 (Toledo): < 0.25 µM
- EC50 (OCI-Ly1; Homo sapiens, 48 h, OCI-Ly1 (DLBCL), 2 days treatment, FIG. 2): < 0.25 µM
- OCI-Ly1 cell viability, Jumonji-inhibitors (OCI-Ly1): decreased OCI-Ly1 cell viability significantly
- JIB04 potency (CTG signal relative to DMSO) when combined with Ibrutinib (OCI-Ly1; combined with Ibrutinib, compared to JIB04 alone, FIG. 16): increased
- reduction of CTG signal, E isomer versus Z isomer (OCI-Ly1; trans configuration (E isomer) relative to cis configuration (Z isomer), FIG. 13): more is effective at reducing CTG signal relative to the cis configuration (Z isomer)
- sensitivity of GCB and ABC type DLBCL lines (DLBCL cell lines; GCB and ABC type DLBCL): both of those lines are sensitive to JIB04
- annexin-V positive cells (lymphoma cell lines): increase in annexin-V positive cells in a dose-dependent manner
- production of cleaved PARP (PARP): increased production of cleaved PARP
- CDKN1A expression (OCI-Ly1 cell lines; FIGS. 7B and 7C): significantly upregulated
- downregulated pathways (GSEA) (OCI-Ly1 cell lines; [5]): downregulation of “E2F targets” and “Myc-targets”
- upregulated pathways (GSEA) (OCI-Ly1 cell lines; [5]): upregulation of “apoptosis” and “p53”-pathways
- cell cycle [1]: cell cycle arrest
- levels of Ikaros family members [2]: downregulates levels of members of Ikaros family, such as IKZF1 and IKZF3
- canonical Wnt signaling (canonical Wnt signaling): inhibits canonical Wnt signaling
- tumor burden (Ly1 cells [3]): reduction in tumor burden within a short window of treatment
- survival (Ly1 cells [4]): increased survival as compared to vehicle treated mice

Compound: CCOC(=O)c1ccnc(CNCC(=O)N(CC)CCN(C)C)c1 [KDM5-C70]
- OCI-Ly1 cell viability, Jumonji-inhibitors (OCI-Ly1): only JIB04 decreased OCI-Ly1 cell viability significantly

Compound: CN(C)CCCNC(=O)c1ccc(-c2cc(O)c3ncccc3c2)cc1 [ML324]
- OCI-Ly1 cell viability, Jumonji-inhibitors (OCI-Ly1): only JIB04 decreased OCI-Ly1 cell viability significantly

Compound: O=[N+]([O-])c1cc([N+](=O)[O-])c(/C=C/c2ccc(Cl)c(Cl)c2)cc1/C=C/c1ccc(Cl)c(Cl)c1 [NSC636819]
- OCI-Ly1 cell viability, Jumonji-inhibitors (OCI-Ly1): only JIB04 decreased OCI-Ly1 cell viability significantly

Compound: Cc1cc(/C=C/c2ccc3cc(N(C)C)ccc3[n+]2C)c(C)n1-c1ccccc1 [Pyrvinium]
- sensitivity of DLBCL cell lines (DLBCL cell lines; FIG. 22): sensitive to Pyrvinium
